Experiments:
[1] = Unbound fraction in psychotic patient (9 patients) at 3.5 +/- 1.2 mg, iv by reversed phase HPLC method; assay type: ADME, organism-based; conditions: human, in vivo
[2] = Terminal phase volume of distribution at steady state in psychotic patient (9 patients) at 3.5 +/- 1.2 mg, iv by reversed phase HPLC method based model-dependent approach analysis; assay type: ADME, organism-based; conditions: human, in vivo, 3.5 mg, read-out: Vbeta
[3] = Volume of distribution at steady state in psychotic patient (9 patients) at 3.5 +/- 1.2 mg, iv by reversed phase HPLC method; assay type: ADME, organism-based; conditions: human, in vivo, 3.5 mg, read-out: Vdss
[4] = Terminal phase volume of distribution at steady state in psychotic patient (9 patients) at 3.5 +/- 1.2 mg, iv by reversed phase HPLC method; assay type: ADME, organism-based; conditions: human, in vivo, 3.5 mg, read-out: Vbeta
[5] = Terminal phase volume of distribution at steady state in psychotic patient (9 patients) at 3.5 +/- 1.2 mg, iv by reversed phase HPLC method based model-independent approach analysis; assay type: ADME, organism-based; conditions: human, in vivo, 3.5 mg, read-out: Vbeta
[6] = Unbound fraction in human serum; assay type: ADME, cell-free
Plasma = test: Plasma concentration in psychotic patient; assay type: ADME; conditions: human
[7] = Terminal half life in psychotic patient (9 patients) at 2.9 +/- 1.2 mg, po by reversed phase HPLC method; assay type: ADME, organism-based; conditions: human, in vivo, 2.9 mg, read-out: beta t1/2 (converted)
[8] = Terminal half life in psychotic patient (9 patients) at 3.5 +/- 1.2 mg, iv by reversed phase HPLC method; assay type: ADME, organism-based; conditions: human, in vivo, 3.5 mg, read-out: beta t1/2 (converted)

Fu [1]: 0.6% | Vd [2]: 9.6 L/kg | Vd [3]: 7.9 L/kg | Vd [4]: 9.5 L/kg | Vd [5]: 9.5 L/kg | fraction unbound [6]: 0.08 | Cp (Plasma): 5 ng/mL | half-life [7]: 1090 min | half-life [8]: 1130 min
SMILES: O=C(CCCN1CCC(O)(c2ccc(Cl)cc2)CC1)c1ccc(F)cc1 [HALOPERIDOL]

From ChEMBL document CHEMBL3784949 (Psychopharmacology (Berl), 1987)
